Data on 23 compounds can be found in the supplement of paper PMC11821682.

Bounds are passed on as bounds.

The subject of one assay is Danio rerio embryo. As to the kind of experiment: BMC10 any morphological effect or mortality at 120 hpf; higher = less toxic.
The test system of the next assay is HL-60. As to the kind of experiment: Cell Health Index (toxicity pseudo-probability over dose series) (index 0-1); higher = more cytotoxic / cell stress.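 Also: HL-60 cells exposed 4 h at 37 °C to ten threefold dilutions spanning 5 nM to 100 µM, multiparametric flow cytometry features scored by machine-learning classification.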

Consider `O=C(/C=C/c1ccccc1)NC(NC(=S)Nc1cccc2cccnc12)C(Cl)(Cl)Cl` (stereo unspecified) [Salubrinal], for which the “BMC10 any morphological effect or mortality” value with Danio rerio embryo is more than 100 µM. Also, in the assay on HL-60, the “Cell Health Index” value is 0.377.
Take `O=C1/C(=C/c2ccc(O)c(O)c2)COc2cc(O)ccc21` [Sappanone A]: the “BMC10 any morphological effect or mortality” value in the assay with Danio rerio embryo is more than 100 µM. Moreover, the “Cell Health Index” value in the assay on HL-60 came out at 0.614.
As for `CC(C)(C)NC(=O)[C@@H]1C[C@@H]2CCCC[C@@H]2CN1C[C@@H](O)[C@H](Cc1ccccc1)NC(=O)[C@H](CC(N)=O)NC(=O)c1ccc2ccccc2n1.CS(=O)(=O)O` [Saquinavir], in the assay with Danio rerio embryo, the “BMC10 any morphological effect or mortality” value is more than 100 µM. For the same compound, the “Cell Health Index” value in the assay with HL-60 stood at 0.87.
In the same order, the values of `O=c1cc(-c2ccc(O)cc2)oc2cc(O)c(O)c(O)c12` [Scutellarein] are more than 100 µM and 0.815.
Taken in the same sequence, the figures for `O=C(O)[C@H]1O[C@@H](Oc2cc3oc(-c4ccc(O)cc4)cc(=O)c3c(O)c2O)[C@H](O)[C@@H](O)[C@@H]1O` [Scutellarin] were more than 100 µM and 0.476.
For `O=C(O)c1cc(O)c2c(c1)[C@H]([C@H]1c3cc(C(=O)O)cc(O)c3C(=O)c3c(O[C@@H]4O[C@H](CO)[C@@H](O)[C@H](O)[C@H]4O)cccc31)c1cccc(O[C@@H]3O[C@H](CO)[C@@H](O)[C@H](O)[C@H]3O)c1C2=O` [Sennoside A], in the assay with Danio rerio embryo, the “BMC10 any morphological effect or mortality” value was more than 100 µM. The “Cell Health Index” value in the assay with HL-60 stood at 0.422.
`CC(C)OC(=O)[C@H](C)NP(=O)(OC[C@H]1O[C@@H](n2ccc(=O)[nH]c2=O)[C@](C)(F)[C@@H]1O)Oc1ccccc1` (stereo partly specified) [Sofosbuvir]: the “BMC10 any morphological effect or mortality” value in the assay with Danio rerio embryo was more than 100 µM. For the same compound, the “Cell Health Index” value with HL-60 came out at 0.166.
In the same order, the values of `O=C1C=CC[C@@H]2[C@H]3CCCN4CCC[C@@H](CN12)[C@@H]34` [Sophocarpine] are more than 100 µM and 0.164.
Taken in the same sequence, the figures for `OC[C@H]1O[C@@H](O[C@H]2C(O)O[C@H](CO)[C@@H](O)[C@@H]2O)[C@H](O)[C@@H](O)[C@@H]1O` (stereo partly specified) [Sophorose] were more than 100 µM and 0.187.
For the compound `Cc1cn([C@H]2C=C[C@@H](CO)O2)c(=O)[nH]c1=O` [Stavudine], the “BMC10 any morphological effect or mortality” value with Danio rerio embryo was more than 100 µM. For the same compound, the “Cell Health Index” value with HL-60 stood at 0.204.
In the same order, the values of `COc1ncnc(NS(=O)(=O)c2ccc(N)cc2)c1OC` [Sulfadoxin] are more than 100 µM and 0.201.
Turning to `CCC[C@H](NC(=O)[C@@H]1[C@H]2CCC[C@H]2CN1C(=O)[C@@H](NC(=O)[C@@H](NC(=O)c1cnccn1)C1CCCCC1)C(C)(C)C)C(=O)C(=O)NC1CC1` [Telaprevir], the “BMC10 any morphological effect or mortality” value with Danio rerio embryo was more than 100 µM. For the same compound, the “Cell Health Index” value in the assay with HL-60 came out at 0.402.
In the same order, the values of `Cc1cn([C@@H]2C[C@@H](O)[C@H](CO)O2)c(=O)[nH]c1=O` [Telbivudine] are more than 100 µM and 0.153.
Turning to `COc1cnc(-n2cnc(C)n2)c2[nH]cc(C(=O)C(=O)N3CCN(C(=O)c4ccccc4)CC3)c12` [Temsavir], the “BMC10 any morphological effect or mortality” value with Danio rerio embryo was more than 100 µM. For the same compound, the “Cell Health Index” value in the assay on HL-60 was 0.146.
As for `CC(C)OC(=O)OCOP(=O)(CO[C@H](C)Cn1cnc2c(N)ncnc21)OCOC(=O)OC(C)C.O=C(O)/C=C/C(=O)O` [Tenofovir Disoproxil], in the assay with Danio rerio embryo, the “BMC10 any morphological effect or mortality” value was more than 100 µM. Besides, in the assay with HL-60, the “Cell Health Index” value was found to be 0.212.
In the case of `C[C@H](Cn1cnc2c(N)ncnc21)OCP(=O)(O)O` [Tenofovir], the “BMC10 any morphological effect or mortality” value in the assay with Danio rerio embryo is more than 100 µM. The “Cell Health Index” value with HL-60 came to 0.229.
In the same order, the values of `O=c1c(O)cc([C@H]2Oc3cc(O)cc(O)c3C[C@H]2O)cc2c([C@H]3Oc4cc(O)cc(O)c4C[C@H]3O)cc(O)c(O)c12` [Theaflavin] are more than 100 µM and 0.752.
As to `Nc1nc(S)c2nc[nH]c2n1` [Thioguanine], the “BMC10 any morphological effect or mortality” value in the assay on Danio rerio embryo was more than 100 µM. The “Cell Health Index” value with HL-60 came to 0.294.
Taken in the same sequence, the figures for `C[C@@H]1CCN(C(=O)CC#N)C[C@@H]1N(C)c1ncnc2[nH]ccc12.O=C(O)CC(O)(CC(=O)O)C(=O)O` [Tofacitinib] were more than 100 µM and 0.228.
In the same order, the values of `O=c1[nH]c(=O)n([C@H]2C[C@H](O)[C@@H](CO)O2)cc1C(F)(F)F` [Trifluorothymidine] are more than 100 µM and 0.138.
In the case of `C[n+]1cccc(C(=O)O)c1.[Cl-]` [Trigonelline], the “BMC10 any morphological effect or mortality” value in the assay with Danio rerio embryo is more than 100 µM. Also, the “Cell Health Index” value with HL-60 was found to be 0.15.
`O=C(CCc1ccc(O)cc1)c1c(O)cc(O[C@@H]2O[C@H](CO)[C@@H](O)[C@H](O)[C@H]2O)cc1O` [Trilobatin]: the “BMC10 any morphological effect or mortality” value with Danio rerio embryo was more than 100 µM. Besides, in the assay with HL-60, the “Cell Health Index” value stood at 0.183.
In the same order, the values of `COc1cc(C(=O)NCc2ccc(OCCN(C)C)cc2)cc(OC)c1OC.Cl` [Trimethobenzamide] are more than 100 µM and 0.194.
